We go through 4 compounds from patent US20180022780A1, “STABILIZATION ADRENOMEDULLIN DERIVATIVES AND USE THEREOF” (priority 2014, published 2018).

The target in the assay is T1, CLR fused to EYFP and RAMP2 fused to ECFP (Homo sapiens, UniProt O60895+Q16602).
T1 construct: EYFP; ECFP; expressed in transfected cells; host or cells: HEK-293 cells, transient co-transfection
The experiment in a line: cAMP assay (CRE luciferase reporter, HEK-293 cells transiently co-transfected with CLR and RAMP2). Type of assay: cell-based. The note with it: Table 2, cAMP assay; HEK-293, CLR/RAMP2, CRE luciferase, 3 h stimulation, normalized to [G^14]ADM(14-52). As to the method: HEK-293 cells (human embryonic kidney cells) were cultured in Ham's F-12/DMEM (1/1; v/v) containing 15% FCS under humidified atmosphere at 37° C. and 5% CO2 in 75 cm^2 cell culture flasks.
Cells were cultured in 75 cm^2 flasks to 70-80% confluency. 45 μl Metafectene® Pro was diluted in 900 μl Ham's F-12/DMEM (1/1; v/v) and incubated for 20 min at room temperature. 9000 ng plasmid containing DNA of CLR fused to EYFP and 3000 ng plasmid containing DNA of RAMP2 fused to ECFP were dissolved in 900 μl Ham's F-12/DMEM (1/1; v/v). The plasmid solution was mixed with the Metafectene® Pro solution and incubated for 25 min at room temperature. Medium was removed from the cells and replaced by 6 ml Ham's F-12/DMEM (1/1; v/v) containing 15% FCS. After addition of transfection solution the cells were incubated for 3 h under humidified atmosphere at 37° C. and 5% CO2.
For the second transfection 45 μl Metafectene® Pro was diluted in 900 μl Ham's F-12/DMEM (1/1; v/v) and incubated for 20 min at room temperature. 12000 ng of pGL4.29[luc2P/CRE/Hygro] plasmid containing DNA for the luciferase reporter gene luc2P (with CRE promotor region) were dissolved in 900 μl Ham's F-12/DMEM (1/1; v/v). The plasmid solution was mixed with the Metafectene® Pro solution and incubated for 25 min at room temperature. Medium was removed from the cells and replaced by 6 ml Ham's F-12/DMEM (1/1; v/v) containing 15% FCS. After addition of transfection solution the cells were incubated under humidified atmosphere at 37° C. and 5% CO2 over night.
For the coating of 96-well-plates 50 μl of a Poly-D-Lysine solution (1 ml stock solution of Poly-D-Lysin-hydrobromid/10 ml DPBS) were pipetted in each well and incubated for 40 min. After removal of the Poly-D-Lysine each well was washed with 50 μl DPBS. Transiently transfected cells were detached from the cell culture flask by removal of the medium, twofold washing with 5 m1 DPBS and resuspending in 13 ml Ham's F-12/DMEM (1/1; v/v) containing 15% FCS. 90000 to 120000 cells in 150 μl Ham's F-12/DMEM (1/1; v/v) containing 15% FCS were seeded per well and the plates were incubated under humidified atmosphere at 37° C. and 5% CO2 over night.
For each ligand a serial dilution giving eight different concentrations was prepared using Ham's F-12/DMEM (1/1; v/v). Before stimulation the medium on the cells was replaced by 100 μl Ham's F-12/DMEM (1/1; v/v) and the plates were incubated for 1 h under humidified atmosphere at 37° C. and 5% CO2. For stimulation the medium was removed again and the cells were incubated for 3 h in 80 μl of ligand-solution under humidified atmosphere at 37° C. and 5% CO2. In addition 80 μl of a 5 μM forskolin solution (in Ham's F-12/DMEM (1/1; v/v)) was used as a positive control and 80 μl of Ham's F-12/DMEM (1/1; v/v) as a negative control. Each concentration and the controls were tested as triplicates.
After 3 h of stimulation, the solutions were removed and the cells were washed with 50 μl of Ham's F-12/DMEM (1/1; v/v) per well. After 10 min incubation in 30 μl of Ham's F-12/DMEM (1/1; v/v) at room temperature, 30 μl of luciferase-solution (ONE-Glo™ Luciferase Assay System) was added and the luminescence was directly measured using an Infinite M200 (Tecan).
Data analysis of the luminescence measurement was carried out with GraphPad Prism 5. Therefore the measured luminescence values of each plate were first corrected on the base of the respective average of forskolin stimulation. Afterwards they were normalized to [G^14]ADM(14-52) which was used as standard peptide in every assay. After correction and normalization data was analysed using non-linear regression giving dose-response curves for each tested ligand.

Bridge positions count the residues as written; N and C are the ends. Square brackets hold non-standard residues; d marks the D form. Peptide text beside a SMILES is read from it. Dab = NCC[C@H](N)C(=O)O; Dap = NC[C@H](N)C(=O)O

T1 sequence (Q16602 23-461): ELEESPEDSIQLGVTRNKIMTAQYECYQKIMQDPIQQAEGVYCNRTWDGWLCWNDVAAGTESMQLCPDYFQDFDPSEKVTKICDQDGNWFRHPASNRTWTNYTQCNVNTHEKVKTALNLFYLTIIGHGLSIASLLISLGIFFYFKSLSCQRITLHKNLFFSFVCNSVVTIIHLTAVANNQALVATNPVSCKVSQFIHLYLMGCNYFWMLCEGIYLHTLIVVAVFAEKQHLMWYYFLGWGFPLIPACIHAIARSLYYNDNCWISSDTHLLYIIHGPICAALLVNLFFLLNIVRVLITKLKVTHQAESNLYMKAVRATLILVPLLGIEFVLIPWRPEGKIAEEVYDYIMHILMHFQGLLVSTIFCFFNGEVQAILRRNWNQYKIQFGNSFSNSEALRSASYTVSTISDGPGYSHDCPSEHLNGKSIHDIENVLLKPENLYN
T1 sequence (O60895 43-175): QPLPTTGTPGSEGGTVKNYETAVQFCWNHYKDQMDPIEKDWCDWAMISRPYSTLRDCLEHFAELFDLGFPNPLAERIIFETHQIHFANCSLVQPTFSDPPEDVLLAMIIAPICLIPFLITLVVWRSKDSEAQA

`CC[C@H](C)[C@H](NC(=O)[C@H](CCC(N)=O)NC(=O)[C@H](Cc1c[nH]cn1)NC(=O)[C@H](C)NC(=O)[C@H](CC(C)C)NC(=O)[C@H](CCCCN)NC(=O)[C@H](CCC(N)=O)NC(=O)[C@@H](NC(=O)[C@@H](NC(=O)[C@@H]1CCCCNC(=O)CC[C@H](NC(=O)CNC(=O)CN)C(=O)N[C@@H](CCCNC(=N)N)C(=O)N[C@@H](Cc2ccccc2)C(=O)NCC(=O)N[C@@H]([C@@H](C)O)C(=O)N1)[C@@H](C)O)C(C)C)C(=O)N[C@@H](Cc1ccc(O)cc1)C(=O)N[C@@H](CCC(N)=O)C(=O)N[C@@H](Cc1ccccc1)C(=O)N[C@H](C(=O)N[C@@H](CC(=O)O)C(=O)N[C@@H](CCCCN)C(=O)N[C@@H](CC(=O)O)C(=O)N[C@@H](CCCCN)C(=O)N[C@@H](CC(=O)O)C(=O)N[C@@H](CC(N)=O)C(=O)N[C@H](C(=O)N[C@@H](C)C(=O)N1CCC[C@H]1C(=O)N[C@@H](CCCNC(=N)N)C(=O)N[C@@H](CO)C(=O)N[C@@H](CCCCN)C(=O)N[C@H](C(=O)N[C@@H](CO)C(=O)N1CCC[C@H]1C(=O)N[C@@H](CCC(N)=O)C(=O)NCC(=O)N[C@@H](Cc1ccc(O)cc1)C(N)=O)[C@@H](C)CC)C(C)C)[C@@H](C)O` [Example 1, ((2S,5S,11S,14S,23S)-23-(2-(2-aminoacetamido)acetamido)-5-benzyl-2-(3-guanidinopropyl)-11-((R)-1-hydroxyethyl)-3,6,9,12,20,24-hexaoxo-1,4,7,10,13,19-hexaazacyclotetracosane-14-carbonyl)-L-threonyl-ADM(22-52)] (H-GGERFGTKTVQKLAHQIYQFTDKDKDNVAPRSKISPQGY-NH2; lactam 3-8) had an EC50 of 31 nM. In the case of `CC[C@H](C)[C@H](NC(=O)[C@H](CCC(N)=O)NC(=O)[C@H](Cc1c[nH]cn1)NC(=O)[C@H](C)NC(=O)[C@H](CC(C)C)NC(=O)[C@H](CCCCN)NC(=O)[C@H](CCC(N)=O)NC(=O)[C@@H](NC(=O)[C@@H](NC(=O)[C@@H]1CC(=O)NC[C@H](NC(=O)CNC(=O)CN)C(=O)N[C@@H](CCCNC(=N)N)C(=O)N[C@@H](Cc2ccccc2)C(=O)NCC(=O)N[C@@H]([C@@H](C)O)C(=O)N1)[C@@H](C)O)C(C)C)C(=O)N[C@@H](Cc1ccc(O)cc1)C(=O)N[C@@H](CCC(N)=O)C(=O)N[C@@H](Cc1ccccc1)C(=O)N[C@H](C(=O)N[C@@H](CC(=O)O)C(=O)N[C@@H](CCCCN)C(=O)N[C@@H](CC(=O)O)C(=O)N[C@@H](CCCCN)C(=O)N[C@@H](CC(=O)O)C(=O)N[C@@H](CC(N)=O)C(=O)N[C@H](C(=O)N[C@@H](C)C(=O)N1CCC[C@H]1C(=O)N[C@@H](CCCNC(=N)N)C(=O)N[C@@H](CO)C(=O)N[C@@H](CCCCN)C(=O)N[C@H](C(=O)N[C@@H](CO)C(=O)N1CCC[C@H]1C(=O)N[C@@H](CCC(N)=O)C(=O)NCC(=O)N[C@@H](Cc1ccc(O)cc1)C(N)=O)[C@@H](C)CC)C(C)C)[C@@H](C)O` [Example 3, ((2S,5S,11S,14S,19S)-19-(2-(2-aminoacetamido)acetamido)-5-benzyl-2-(3-guanidinopropyl)-11-((R)-1-hydroxyethyl)-3,6,9,12,16,20-hexaoxo-1,4,7,10,13,17-hexaazacycloicosane-14-carbonyl)-L-threonyl-ADM(22-52)] (H-GG[Dap]RFGTDTVQKLAHQIYQFTDKDKDNVAPRSKISPQGY-NH2; lactam 3-8) it was 67 nM; in that of `CC[C@H](C)[C@H](NC(=O)[C@H](CCC(N)=O)NC(=O)[C@H](Cc1c[nH]cn1)NC(=O)[C@H](C)NC(=O)[C@H](CC(C)C)NC(=O)[C@H](CCCCN)NC(=O)[C@H](CCC(N)=O)NC(=O)[C@@H](NC(=O)[C@@H](NC(=O)[C@@H]1CCNC(=O)C[C@H](NC(=O)CNC(=O)CN)C(=O)N[C@@H](CCCNC(=N)N)C(=O)N[C@@H](Cc2ccccc2)C(=O)NCC(=O)N[C@@H]([C@@H](C)O)C(=O)N1)[C@@H](C)O)C(C)C)C(=O)N[C@@H](Cc1ccc(O)cc1)C(=O)N[C@@H](CCC(N)=O)C(=O)N[C@@H](Cc1ccccc1)C(=O)N[C@H](C(=O)N[C@@H](CC(=O)O)C(=O)N[C@@H](CCCCN)C(=O)N[C@@H](CC(=O)O)C(=O)N[C@@H](CCCCN)C(=O)N[C@@H](CC(=O)O)C(=O)N[C@@H](CC(N)=O)C(=O)N[C@H](C(=O)N[C@@H](C)C(=O)N1CCC[C@H]1C(=O)N[C@@H](CCCNC(=N)N)C(=O)N[C@@H](CO)C(=O)N[C@@H](CCCCN)C(=O)N[C@H](C(=O)N[C@@H](CO)C(=O)N1CCC[C@H]1C(=O)N[C@@H](CCC(N)=O)C(=O)NCC(=O)N[C@@H](Cc1ccc(O)cc1)C(N)=O)[C@@H](C)CC)C(C)C)[C@@H](C)O` [Example 4, ((2S,5S,11S,14S,20S)-20-(2-(2-aminoacetamido)acetamido)-5-benzyl-2-(3-guanidinopropyl)-11-((R)-1-hydroxyethyl)-3,6,9,12,18,21-hexaoxo-1,4,7,10,13,17-hexaazacyclohenicosane-14-carbonyl)-L-threonyl-ADM(22-52)] (H-GGDRFGT[Dab]TVQKLAHQIYQFTDKDKDNVAPRSKISPQGY-NH2; lactam 3-8), 21 nM; in that of `CC[C@H](C)[C@H](NC(=O)[C@H](CCC(N)=O)NC(=O)[C@H](Cc1c[nH]cn1)NC(=O)[C@H](C)NC(=O)[C@H](CC(C)C)NC(=O)[C@H](CCCCN)NC(=O)[C@H](CCC(N)=O)NC(=O)[C@@H](NC(=O)[C@@H](NC(=O)[C@@H]1CCC(=O)NC[C@H](NC(=O)CNC(=O)CN)C(=O)N[C@@H](CCCNC(=N)N)C(=O)N[C@@H](Cc2ccccc2)C(=O)NCC(=O)N[C@@H]([C@@H](C)O)C(=O)N1)[C@@H](C)O)C(C)C)C(=O)N[C@@H](Cc1ccc(O)cc1)C(=O)N[C@@H](CCC(N)=O)C(=O)N[C@@H](Cc1ccccc1)C(=O)N[C@H](C(=O)N[C@@H](CC(=O)O)C(=O)N[C@@H](CCCCN)C(=O)N[C@@H](CC(=O)O)C(=O)N[C@@H](CCCCN)C(=O)N[C@@H](CC(=O)O)C(=O)N[C@@H](CC(N)=O)C(=O)N[C@H](C(=O)N[C@@H](C)C(=O)N1CCC[C@H]1C(=O)N[C@@H](CCCNC(=N)N)C(=O)N[C@@H](CO)C(=O)N[C@@H](CCCCN)C(=O)N[C@H](C(=O)N[C@@H](CO)C(=O)N1CCC[C@H]1C(=O)N[C@@H](CCC(N)=O)C(=O)NCC(=O)N[C@@H](Cc1ccc(O)cc1)C(N)=O)[C@@H](C)CC)C(C)C)[C@@H](C)O` [Example 7, ((3S,9S,12S,15S,21S)-15-(2-(2-aminoacetamido)acetamido)-9-benzyl-12-(3-guanidinopropyl)-3-((R)-1-hydroxyethyl)-2,5,8,11,14,18-hexaoxo-1,4,7,10,13,17-hexaazacyclohenicosane-21-carbonyl)-L-threonyl-ADM(22-52)] (H-GG[Dap]RFGTETVQKLAHQIYQFTDKDKDNVAPRSKISPQGY-NH2; lactam 3-8), 2.9 nM.

By EC50 is commonly meant the concentration needed to bring the measured effect to its halfway point.
